These are literature values, as cited in patent US20240197646A1, “DRUG DELIVERY SYSTEM AND METHODS OF USING THE SAME” (Axogen Corporation, priority 2022, published 2024).

The conditions of this data set: stated reference level, no source or test given.

On to `C=CC[C@@H]1/C=C(\C)C[C@H](C)C[C@H](OC)[C@H]2O[C@@](O)(C(=O)C(=O)N3CCCC[C@H]3C(=O)O[C@H](/C(C)=C/[C@@H]3CC[C@@H](O)[C@H](OC)C3)[C@H](C)[C@@H](O)CC1=O)[C@H](C)C[C@@H]2OC` [FK506], for which the toxic dose entry is “about 5 mg/ml”.
